These results are taken from PubChem BioAssay (NCI).

SMILES strings stand for the structures. “And” between values parts separate entries of the source, which are not always exact repeats. Identical values can stand only once.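 Test compounds were applied to cells in 96-well plates for 48 hours at 5 doses. GI50 = concentration required for 50% inhibition of growth. Definition used: TGI = concentration required for complete inhibition of growth.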

Among the test systems are A498 renal; CCRF-CEM leukemia; DU-145 prostate; HCT-15 colon; HL-60(TB) leukemia; HOP-62 NSCLC; HS 578T breast; MCF7 breast; RPMI-8226 leukemia; UO-31 renal.
Holding throughout (test): growth of human tumour cells (NCI), 48 h

Turning to `Cc1cc2c(cc1Cl)N1C(=O)NS(=O)(=O)N=C1NS2(=O)=O`, the GI50 in the experiment on A498 renal, with CCRF-CEM leukemia, in the experiment on DU-145 prostate, in the experiment with HCT-15 colon, in the experiment on HL-60(TB) leukemia and in the experiment on HOP-62 NSCLC was more than 100 µM throughout. The GI50 in the experiment on HS 578T breast, with MCF7 breast, in the experiment with RPMI-8226 leukemia and with UO-31 renal was more than 100 µM throughout. Also, the TGI in the experiment with A498 renal, in the experiment on CCRF-CEM leukemia, in the experiment on DU-145 prostate, in the experiment on HCT-15 colon, in the experiment on HL-60(TB) leukemia and in the experiment with HOP-62 NSCLC was more than 100 µM in each case. Also, the TGI in the experiment with HS 578T breast, with MCF7 breast, in the experiment on RPMI-8226 leukemia and in the experiment on UO-31 renal was more than 100 µM each time.

As to `COc1cc(Cn2c(SCC(=O)Nc3ccc(Cl)cc3)nc3ccccc3c2=O)cc(OC)c1OC`, the GI50 is 2.42 µM with A498 renal; more than 100 µM in the experiment with CCRF-CEM leukemia; 18.1 µM in the experiment on DU-145 prostate; 17 µM in the experiment on HCT-15 colon; more than 100 µM with HL-60(TB) leukemia; 3.1 µM in the experiment on HOP-62 NSCLC. The GI50 is 3.95 µM in the experiment with HS 578T breast, 8.97 µM with MCF7 breast, 22.9 µM with RPMI-8226 leukemia and 3.75 µM with UO-31 renal. The TGI in the experiment on A498 renal was 12.2 µM; in the experiment with CCRF-CEM leukemia, more than 100 µM; with DU-145 prostate it was more than 100 µM; in the experiment on HCT-15 colon, more than 100 µM; in the experiment with HL-60(TB) leukemia it was more than 100 µM; in the experiment on HOP-62 NSCLC it was 14.5 µM. In addition, the TGI in the experiment on HS 578T breast is 40.3 µM; in the experiment on MCF7 breast it was 55.1 µM; in the experiment on RPMI-8226 leukemia, more than 100 µM; in the experiment with UO-31 renal, 32.4 µM.

On to `O=C1/C(=C/c2ccccc2[N+](=O)[O-])COc2ccc(O)c(O)c21`, for which the GI50 is 2.11 µM with A498 renal; 0.365 µM in the experiment with CCRF-CEM leukemia; 0.807 µM in the experiment on DU-145 prostate; 0.286 µM in the experiment with HCT-15 colon; 0.745 µM in the experiment on HL-60(TB) leukemia; 3.55 µM in the experiment with HOP-62 NSCLC. The GI50 in the experiment with HS 578T breast was 2.05 µM; with MCF7 breast, 0.409 µM; in the experiment with RPMI-8226 leukemia it was 0.421 µM; in the experiment on UO-31 renal, 0.295 µM. Besides, the TGI in the experiment on A498 renal is 5.07 µM; with CCRF-CEM leukemia it was more than 50 µM; with DU-145 prostate it was 2.36 µM; with HCT-15 colon, 1.15 µM; in the experiment on HL-60(TB) leukemia it was 8.13 µM; with HOP-62 NSCLC it was 14.5 µM. The TGI with HS 578T breast was 12.6 µM; in the experiment on MCF7 breast, 3.02 µM; in the experiment with RPMI-8226 leukemia, more than 41.3 µM; in the experiment on UO-31 renal, 2.03 µM.

As for `CCCCCCSc1nc(COC(=O)NC)c(COC(=O)NC)n1C`, the TGI in the experiment on A498 renal, with CCRF-CEM leukemia, with DU-145 prostate, in the experiment on HCT-15 colon, in the experiment on HL-60(TB) leukemia and in the experiment with HOP-62 NSCLC was more than 100 µM each time. Also, the TGI in the experiment with HS 578T breast, with MCF7 breast, in the experiment with RPMI-8226 leukemia and in the experiment with UO-31 renal was more than 100 µM each time.

With `CCc1ccc([O-])c(C=NCCCN(C)CCCN=Cc2cc(C)ccc2[O-])c1.[Co+3].[N-]=[N+]=[N-]`, the GI50 is 50 µg/mL and 79.7 µg/mL in the experiment with A498 renal; more than 150 µg/mL in the experiment with CCRF-CEM leukemia; 11.6 µg/mL in the experiment with DU-145 prostate; 29.5 µg/mL and 35.9 µg/mL with HCT-15 colon; 61 µg/mL in the experiment with HL-60(TB) leukemia; 10.5 µg/mL and 12 µg/mL in the experiment with HOP-62 NSCLC. In addition, the GI50 is 13.8 µg/mL in the experiment with HS 578T breast; 50 µg/mL and > 150 µg/mL in the experiment with MCF7 breast; 50 µg/mL and 73.5 µg/mL in the experiment on RPMI-8226 leukemia; 50 µg/mL and 84.2 µg/mL in the experiment on UO-31 renal. The TGI in the experiment on A498 renal is 50 µg/mL and 127 µg/mL; in the experiment on CCRF-CEM leukemia, more than 150 µg/mL; in the experiment on DU-145 prostate, 50 µg/mL; in the experiment with HCT-15 colon it was 50 µg/mL and > 150 µg/mL; with HL-60(TB) leukemia it was more than 150 µg/mL; with HOP-62 NSCLC, 50 µg/mL and 34.5 µg/mL. Besides, the TGI was 50 µg/mL in the experiment on HS 578T breast; 50 µg/mL and > 150 µg/mL in the experiment with MCF7 breast; 50 µg/mL and > 150 µg/mL in the experiment on RPMI-8226 leukemia; 50 µg/mL and > 150 µg/mL in the experiment on UO-31 renal.

Take `Fc1ccc(C2C3CCOc4c(ccc5ccccc45)C3=NN2c2ccccc2)cc1` (stereo not given): the GI50 is more than 100 µM in the experiment on A498 renal; 16.6 µM in the experiment with CCRF-CEM leukemia; more than 100 µM in the experiment on DU-145 prostate; 9.34 µM in the experiment with HCT-15 colon; more than 100 µM in the experiment with HL-60(TB) leukemia; more than 100 µM in the experiment with HOP-62 NSCLC. In addition, the GI50 was more than 88.6 µM in the experiment with HS 578T breast, more than 85.4 µM in the experiment with MCF7 breast, 63.5 µM with RPMI-8226 leukemia and more than 100 µM in the experiment with UO-31 renal. Moreover, the TGI with A498 renal was more than 100 µM; with CCRF-CEM leukemia, more than 74.4 µM; in the experiment with DU-145 prostate, more than 100 µM; in the experiment with HCT-15 colon, more than 100 µM; in the experiment on HL-60(TB) leukemia it was more than 100 µM; with HOP-62 NSCLC, more than 100 µM. In addition, the TGI with HS 578T breast, with MCF7 breast, in the experiment on RPMI-8226 leukemia and in the experiment on UO-31 renal was more than 100 µM each time.

Turning to `N#Cc1ccc(/C=C/C(=O)c2ccccc2)cc1`, the GI50 with A498 renal is 14.3 µM and 12.3 µM; with CCRF-CEM leukemia, 8.31 µM and 2.86 µM; in the experiment with DU-145 prostate, 13.4 µM and 12.3 µM; in the experiment with HCT-15 colon, 7.13 µM and 3.28 µM; with HL-60(TB) leukemia it was 9.07 µM and 3.2 µM; in the experiment with HOP-62 NSCLC, 22 µM and 18.4 µM. The GI50 in the experiment with HS 578T breast was 18.3 µM and 2.13 µM; in the experiment on MCF7 breast, 2.44 µM and 1.71 µM; with RPMI-8226 leukemia, 2.32 µM and 1.93 µM; in the experiment on UO-31 renal, 2.8 µM and 11.5 µM. The TGI with A498 renal was 29.5 µM and 24.9 µM; with CCRF-CEM leukemia it was > 57 µM and 11.5 µM; with DU-145 prostate, 26.2 µM and 24.9 µM; in the experiment with HCT-15 colon it was 18.7 µM and 13.5 µM; in the experiment with HL-60(TB) leukemia it was 48.4 µM and > 33.1 µM; in the experiment with HOP-62 NSCLC, > 54.9 µM and 33.8 µM. For the same compound, the TGI in the experiment on HS 578T breast is 50.9 µM and 5.64 µM; in the experiment with MCF7 breast, 9.25 µM and 5.38 µM; in the experiment with RPMI-8226 leukemia, 6.4 µM and 4.83 µM; in the experiment with UO-31 renal, 7.98 µM and 23.9 µM.

As to `CC12CC(=O)C3C(CCC4=CC(=O)CCC43C)C1CC=C2CC(=O)O` (stereo not given), the TGI in the experiment on A498 renal, with CCRF-CEM leukemia, with DU-145 prostate, in the experiment on HCT-15 colon, in the experiment with HL-60(TB) leukemia and in the experiment on HOP-62 NSCLC was more than 100 µM in each case. The TGI in the experiment on HS 578T breast, in the experiment with MCF7 breast, in the experiment with RPMI-8226 leukemia and in the experiment on UO-31 renal was more than 100 µM each time.
